Data taken from patent US9221809B2 (MERCK SHARP & DOHME CORP., priority 2011, dated 2015).

Target: IRAK4 (Homo sapiens (Human), UniProt Q9NWZ3)
Experiment: IRAK4 kinase activity, IMAP fluorescence polarization assay
Assay type: biochemical
Settings: 100 μM ATP; read-out: IRAK4 IC50
How it was run: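 GST-tagged IRAK4 at 0.5 nM phosphorylates 100 nM fluorescent peptide substrate with 100 μM ATP in pH 7.2 Tris buffer containing MgCl2, DTT and Tween 20, 30 min at 25 °C. Reaction stopped with IMAP binding reagent; phosphorylation read as increased fluorescence polarization.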

IRAK4, sequence (Q9NWZ3 whole entry): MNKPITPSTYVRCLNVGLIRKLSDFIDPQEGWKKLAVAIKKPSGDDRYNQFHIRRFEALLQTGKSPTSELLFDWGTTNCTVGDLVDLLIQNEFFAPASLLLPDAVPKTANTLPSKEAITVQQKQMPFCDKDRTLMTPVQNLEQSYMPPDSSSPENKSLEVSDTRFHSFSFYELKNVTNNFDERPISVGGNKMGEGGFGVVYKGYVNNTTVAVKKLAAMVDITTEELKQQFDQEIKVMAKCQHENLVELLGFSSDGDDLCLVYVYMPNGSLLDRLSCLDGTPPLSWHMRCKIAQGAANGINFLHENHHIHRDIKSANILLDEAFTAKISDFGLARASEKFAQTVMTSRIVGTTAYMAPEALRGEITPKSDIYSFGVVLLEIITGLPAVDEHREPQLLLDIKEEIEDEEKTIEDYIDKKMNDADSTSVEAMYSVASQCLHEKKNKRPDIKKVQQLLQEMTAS

| IC50 | SMILES |
| --- | --- |
| 22 nM | COC1(C)CN(c2nc(N[C@@H]3CCCNC3)c(-c3ccc4ccccc4n3)c(=O)[nH]2)C1 [Example 176, (R)-2-(3-methoxy-3-methylazetidin-1-yl)-6-(piperidin-3-ylamino)-5-(quinolin-2-yl)pyrimidin-4(3H)-one] |
| 13 nM | O=c1[nH]c(N2CC[C@H](F)C2)nc(N[C@@H]2CCCNC2)c1-c1ccc2ccccc2n1 [Example 177, 2-((S)-3-fluoropyrrolidin-1-yl)-6-((R)-piperidin-3-ylamino)-5-(quinolin-2-yl)pyrimidin-4(3H)-one] |
| 35 nM | CO[C@H]1CCN(c2nc(N[C@@H]3CCCNC3)c(-c3ccc4ccccc4n3)c(=O)[nH]2)C1 [Example 178, 2-((S)-3-methoxypyrrolidin-1-yl)-6-((R)-piperidin-3-ylamino)-5-(quinolin-2-yl)pyrimidin-4(3H)-one] |
| 13 nM | O=c1[nH]c(N2CC[C@@H](CO)C2)nc(N[C@@H]2CCCNC2)c1-c1ccc2ccccc2n1 [Example 179, 2-((R)-3-(hydroxymethyl)pyrrolidin-1-yl)-6-((R)-piperidin-3-ylamino)-5-(quinolin-2-yl)pyrimidin-4(3H)-one] |
| 15 nM | O=c1[nH]c(N2CC[C@H](CO)C2)nc(N[C@@H]2CCCNC2)c1-c1ccc2ccccc2n1 [Example 180, 2-((S)-3-(hydroxymethyl)pyrrolidin-1-yl)-6-((R)-piperidin-3-ylamino)-5-(quinolin-2-yl)pyrimidin-4(3H)-one] |
| 31 nM | CC1(O)CCN(c2nc(N[C@@H]3CCCNC3)c(-c3ccc4ccccc4n3)c(=O)[nH]2)C1 (stereo partly drawn) [Example 181, 2-(3-hydroxy-3-methylpyrrolidin-1-yl)-6-((R)-piperidin-3-ylamino)-5-(quinolin-2-yl)pyrimidin-4(3H)-one] |
| 3180 nM | O=c1[nH]c(N2CCCC2c2ccncc2)nc(N[C@@H]2CCCNC2)c1-c1ccc2ccccc2n1 (stereo partly drawn) [Example 182, 6-((R)-piperidin-3-ylamino)-2-(2-(pyridin-4-yl)pyrrolidin-1-yl)-5-(quinolin-2-yl)pyrimidin-4(3H)-one] |
| 85 nM | O=c1[nH]c(N2CCC[C@H]2CF)nc(N[C@@H]2CCCNC2)c1-c1ccc2ccccc2n1 [Example 183, 2-((S)-2-(fluoromethyl)pyrrolidin-1-yl)-6-((R)-piperidin-3-ylamino)-5-(quinolin-2-yl)pyrimidin-4(3H)-one] |
| 42 nM | CC(C)(O)C1CCN(c2nc(N[C@@H]3CCCNC3)c(-c3ccc4ccccc4n3)c(=O)[nH]2)C1 (stereo partly drawn) [Example 184, 2-(3-(2-hydroxypropan-2-yl)pyrrolidin-1-yl)-6-((R)-piperidin-3-ylamino)-5-(quinolin-2-yl)pyrimidin-4(3H)-one] |
| 851 nM | CN1CCC2CCN(c3nc(N[C@@H]4CCCNC4)c(-c4ccc5ccccc5n4)c(=O)[nH]3)C2C1 (stereo partly drawn) [Example 185, 2-(6-methyloctahydro-1H-pyrrolo[2,3-c]pyridin-1-yl)-6-((R)-piperidin-3-ylamino)-5-(quinolin-2-yl)pyrimidin-4(3H)-one] |
| 26 nM | COC1CCN(c2nc(N[C@@H]3CCCNC3)c(-c3ccc4ccccc4n3)c(=O)[nH]2)C1 (stereo partly drawn) [Example 186, 2-(3-methoxypyrrolidin-1-yl)-6-((R)-piperidin-3-ylamino)-5-(quinolin-2-yl)pyrimidin-4(3H)-one] |
| 16 nM | O=c1[nH]c(N2CCC(c3ccccc3)CC2)nc(N[C@@H]2CCCNC2)c1-c1ccc2ccccc2n1 [Example 187, (R)-2-(4-phenylpiperidin-1-yl)-6-(piperidin-3-ylamino)-5-(quinolin-2-yl)pyrimidin-4(3H)-one] |
| 17 nM | Cc1ccccc1C1CCN(c2nc(N[C@@H]3CCCNC3)c(-c3ccc4ccccc4n3)c(=O)[nH]2)CC1 [Example 188, (R)-6-(piperidin-3-ylamino)-5-(quinolin-2-yl)-2-(4-(o-tolyl)piperidin-1-yl)pyrimidin-4(3H)-one] |
| 13 nM | COc1ccccc1C1CCN(c2nc(N[C@@H]3CCCNC3)c(-c3ccc4ccccc4n3)c(=O)[nH]2)CC1 [Example 189, (R)-2-(4-(2-methoxyphenyl)piperidin-1-yl)-6-(piperidin-3-ylamino)-5-(quinolin-2-yl)pyrimidin-4(3H)-one] |
| 32 nM | O=c1[nH]c(N2CCC(c3ccccc3C(F)(F)F)CC2)nc(N[C@@H]2CCCNC2)c1-c1ccc2ccccc2n1 [Example 190, (R)-6-(piperidin-3-ylamino)-5-(quinolin-2-yl)-2-(4-(2-(trifluoromethyl)phenyl)piperidin-1-yl)pyrimidin-4(3H)-one] |
| 138 nM | Cc1nsc(C2CCN(c3nc(N[C@@H]4CCCNC4)c(-c4ccc5ccccc5n4)c(=O)[nH]3)CC2)n1 [Example 191, (R)-2-(4-(3-methyl-1,2,4-thiadiazol-5-yl)piperidin-1-yl)-6-(piperidin-3-ylamino)-5-(quinolin-2-yl)pyrimidin-4(3H)-one] |
| 66 nM | Cc1cc(C2CCN(c3nc(N[C@@H]4CCCNC4)c(-c4ccc5ccccc5n4)c(=O)[nH]3)CC2)[nH]n1 [Example 192, (R)-2-(4-(3-methyl-1H-pyrazol-5-yl)piperidin-1-yl)-6-(piperidin-3-ylamino)-5-(quinolin-2-yl)pyrimidin-4(3H)-one] |
| 45 nM | O=c1[nH]c(N2CCC(c3cccc(F)n3)CC2)nc(N[C@@H]2CCCNC2)c1-c1ccc2ccccc2n1 [Example 193, (R)-2-(4-(6-fluoropyridin-2-yl)piperidin-1-yl)-6-(piperidin-3-ylamino)-5-(quinolin-2-yl)pyrimidin-4(3H)-one] |
| 169 nM | O=c1[nH]c(N2CC3CC2CN3)nc(N[C@@H]2CCCNC2)c1-c1ccc2ccccc2n1 (stereo partly drawn) [Example 194, 2-(2,5-diazabicyclo[2.2.1]heptan-2-yl)-6-((R)-piperidin-3-ylamino)-5-(quinolin-2-yl)pyrimidin-4(3H)-one] |
| 757 nM | COc1ccc(N2CC3CC2CN3c2nc(N[C@@H]3CCCNC3)c(-c3ccc4ccccc4n3)c(=O)[nH]2)cc1 (stereo partly drawn) [Example 195, 2-(5-(4-methoxyphenyl)-2,5-diazabicyclo[2.2.1]heptan-2-yl)-6-((R)-piperidin-3-ylamino)-5-(quinolin-2-yl)pyrimidin-4(3H)-one] |
| 1800 nM | O=c1[nH]c(N2CCOCC2)nc(N[C@@H]2CCCNC2)c1-c1nc2ccccc2o1 [Example 196] |
| 537 nM | CC(C)(C)c1cccc(-c2c(N[C@@H]3CCCNC3)nc(N3CCOCC3)[nH]c2=O)n1 [Example 197] |
| 3460 nM | O=c1[nH]c(N2CCOCC2)nc(N[C@@H]2CCCNC2)c1-c1cncc(-n2cccc2)n1 [Example 198] |
| 4760 nM | O=c1[nH]c(N2CCOCC2)nc(N[C@@H]2CCCNC2)c1-c1ccccn1 [Example 199] |
| 141 nM | O=c1[nH]c(N2CCOCC2)nc(N[C@@H]2CCCNC2)c1-c1nc(-c2cccc(C(F)(F)F)c2)cs1 [Example 200] |
| 60 nM | O=c1[nH]c(N2CCOCC2)nc(N[C@@H]2CCCNC2)c1-c1nc(-c2ccccc2F)cs1 [Example 201] |
| 153 nM | O=c1[nH]c(N2CCOCC2)nc(N[C@@H]2CCCNC2)c1-c1nc(-c2ccc(Cl)cc2)cs1 [Example 202] |
| 99 nM | O=c1[nH]c(N2CCOCC2)nc(N[C@@H]2CCCNC2)c1-c1nc(-c2cc(F)cc(F)c2)cs1 [Example 203] |
| 40 nM | O=c1[nH]c(N2CCOCC2)nc(N[C@@H]2CCCNC2)c1-c1nc(-c2cccc(F)c2)cs1 [Example 204] |
| 90 nM | O=c1[nH]c(N2CCOCC2)nc(N[C@@H]2CCCNC2)c1-c1nc(-c2cc(F)ccc2F)cs1 [Example 205] |
